Values of other authors, collected in US20030220416A1, “Curable compositions with antimicrobial properties” (priority 1998, published 2003).
Read-outs that look alike come from different tables or passages of the source.

Tests used:
bacteria = details: MDPB incorporated in experimental composites
S. mutans = details: MDPB incorporated in experimental composites
[1] = most of the compositions tested

SMILES | zone of inhibition by the disk diffusion method (bacteria) | attachment of S. mutans to surfaces of the restorative material (S. mutans) | water solubility (distilled water at 20° C.) [ppm] | water solubility (distilled water at 50° C.) [ppm] | release of the triclosan into the surrounding medium [1] [micrograms/ml]
C=C(C)C(=O)OCCCCCCCCCCCC[n+]1ccccc1.[Br-] [MDPB, methacryloyloxydodecylpyridinium bromide] | no zone of inhibition was evident | reduced | – | – | –
Oc1cc(Cl)ccc1Oc1ccc(Cl)cc1Cl [Triclosan, 2,4,4′-trichloro-2′hydroxydiphenyl ether] | – | – | 20 | 20 | 0.02
